Measured values published in patent US7776845B2, “Pharmaceutical compositions” (Harbor Biosciences, Inc., priority 1999, dated 2010).

What was measured:
androgen receptor (AR) [1] = target: T1, androgen receptor (AR) (Homo sapiens, UniProt P10275); experiment: Induction of AR-mediated transcriptional activity (MMTV-CAT reporter assay); format: cell-based; conditions: PC-3 cells co-transfected with AR plasmid and MMTV-CAT; compounds at 1000, 10 and 0.1 nM; FIG. 1
T1 construct: expressed in transfected cells; host or cells: PC-3 (AR-negative human prostate cancer cell line)
T1 sequence (P10275 1-920): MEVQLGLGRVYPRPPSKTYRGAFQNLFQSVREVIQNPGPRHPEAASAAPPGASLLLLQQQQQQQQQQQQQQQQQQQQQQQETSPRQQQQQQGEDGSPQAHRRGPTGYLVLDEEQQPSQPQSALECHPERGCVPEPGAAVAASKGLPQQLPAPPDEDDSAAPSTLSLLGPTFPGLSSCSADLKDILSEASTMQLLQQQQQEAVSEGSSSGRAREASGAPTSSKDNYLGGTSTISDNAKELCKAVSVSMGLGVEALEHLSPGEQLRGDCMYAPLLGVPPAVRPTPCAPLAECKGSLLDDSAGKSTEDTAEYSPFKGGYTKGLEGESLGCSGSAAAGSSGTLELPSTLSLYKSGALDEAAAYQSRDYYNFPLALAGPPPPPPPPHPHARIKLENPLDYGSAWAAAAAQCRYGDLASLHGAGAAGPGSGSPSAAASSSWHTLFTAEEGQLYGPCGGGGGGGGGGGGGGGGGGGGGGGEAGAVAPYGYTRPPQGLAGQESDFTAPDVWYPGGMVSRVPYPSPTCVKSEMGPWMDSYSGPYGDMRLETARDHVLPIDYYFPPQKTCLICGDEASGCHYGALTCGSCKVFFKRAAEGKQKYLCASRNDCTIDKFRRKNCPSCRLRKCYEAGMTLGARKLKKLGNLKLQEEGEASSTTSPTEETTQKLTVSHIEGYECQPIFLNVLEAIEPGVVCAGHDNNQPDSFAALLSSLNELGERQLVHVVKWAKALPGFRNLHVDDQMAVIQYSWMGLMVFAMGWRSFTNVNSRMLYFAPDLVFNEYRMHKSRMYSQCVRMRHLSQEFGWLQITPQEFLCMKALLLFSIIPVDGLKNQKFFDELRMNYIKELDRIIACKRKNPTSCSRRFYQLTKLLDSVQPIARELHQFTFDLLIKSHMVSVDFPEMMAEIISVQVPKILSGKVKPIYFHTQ
Description: (§1) AR activity assay. […] Ethynyl derivatized steroids were purchased from Steraloids.
Induction of AR-mediated transcriptional activity. Steroid compounds were screened for their ability to induce AR transcriptional activity in the AR-negative PC-3 cell line. The results of the CAT assay were obtained by transient co-transfection of AR plasmid and a reporter plasmid (MMTVCAT) containing the CAT gene linked to the androgen response element (ARE). After transfection, the cells were treated with various DHEA derivatives at 1000, 10, and 0.1 nM.

androgen receptor (AR) [2] = target: T1, androgen receptor (AR); experiment: Anti-adiol activity: modulation of AED-induced AR transactivation (MMTV-CAT assay); format: cell-based; conditions: PC-3 cells, pSG5 AR + MMTV-CAT, 50 nM AED, compound at 10, 100 or 1000 nM; FIG. 2B
Text: as §1

[3] = target: T2, progesterone receptor (PR) (Homo sapiens, UniProt P06401); experiment: Steroid hormone specificity: MMTV-CAT reporter with PR in PC-3 cells; conditions: PC-3 cells transfected with MMTV-CAT and PR; FIG. 5
T2 sequence (P06401 1-933): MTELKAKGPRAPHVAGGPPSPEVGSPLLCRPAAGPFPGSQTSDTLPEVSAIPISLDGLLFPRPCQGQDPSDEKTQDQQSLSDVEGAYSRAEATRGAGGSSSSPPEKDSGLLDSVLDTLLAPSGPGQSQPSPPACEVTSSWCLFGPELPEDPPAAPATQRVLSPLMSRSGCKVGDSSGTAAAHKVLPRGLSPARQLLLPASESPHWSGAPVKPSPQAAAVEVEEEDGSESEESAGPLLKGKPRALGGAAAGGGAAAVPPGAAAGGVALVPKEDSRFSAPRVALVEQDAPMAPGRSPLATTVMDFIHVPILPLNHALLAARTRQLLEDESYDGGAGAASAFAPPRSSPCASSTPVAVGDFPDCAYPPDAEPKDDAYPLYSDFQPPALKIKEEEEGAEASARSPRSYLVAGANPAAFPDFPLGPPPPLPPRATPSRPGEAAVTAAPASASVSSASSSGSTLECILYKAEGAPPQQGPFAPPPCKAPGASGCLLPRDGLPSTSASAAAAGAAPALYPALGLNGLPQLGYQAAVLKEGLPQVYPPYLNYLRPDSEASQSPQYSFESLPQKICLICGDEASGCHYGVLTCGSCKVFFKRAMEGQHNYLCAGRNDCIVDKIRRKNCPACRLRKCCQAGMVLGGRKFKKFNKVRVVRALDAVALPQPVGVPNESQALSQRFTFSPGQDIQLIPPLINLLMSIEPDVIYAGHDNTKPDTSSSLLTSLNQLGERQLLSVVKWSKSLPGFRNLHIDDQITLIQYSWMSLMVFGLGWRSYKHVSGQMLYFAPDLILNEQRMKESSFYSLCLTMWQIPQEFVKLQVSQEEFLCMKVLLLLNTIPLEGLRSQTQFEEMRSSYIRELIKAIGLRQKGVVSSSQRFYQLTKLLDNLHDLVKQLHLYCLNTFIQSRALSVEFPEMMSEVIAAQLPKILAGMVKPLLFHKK
Description: Ethynyl derivatized steroids were purchased from Steraloids. The plasmid pSG5-wild-type AR (pSG5) and mouse mammalian tumor virus (MMTV)-chloramphenicol acetyltransferase (CAT) were constructed as described (6). […] The human prostate cancer cell line, PC-3, and human breast cancer cell line, MCF-7, were maintained in Dulbecco's modified eagles medium (DMEM) containing 10% fetal calf serum. DNA transfection and CAT assays were performed essentially as described (4, 6, 7). Briefly, 4×10^5 cells were plated on 60 mm dishes 24 h before transfection, and the medium was changed to DMEM (without phenol red) with 10% charcoal-stripped fetal calf serum 1 hour before transfection. The cells were transfected using the calcium phosphate precipitation method. The total amount of DNA was adjusted to 8.5 μg with pSG5 in each transfection assay. After transfecting the cells for 24 hours, the transfection medium was removed, fresh DMEM was added and steroids were added. The cells were then incubated in DMEM with steroids for 24 hours. After incubation, the cells were harvested and whole cell extracts were used for CAT assay. Transfection efficiency was normalized by cotransfection with a βgalactosidase vector, which acted as an internal control. The CAT enzyme activity was quantitated by phosphor imager according to the manufacturer's instructions (Molecular Dynamics).

androgen receptor (AR) [4] = target: T1, androgen receptor (AR); experiment: Suppression of AED-induced AR transcriptional activity in the presence of HF (MMTV-CAT assay); format: cell-based; conditions: PC-3 cells, 1 μM HF, 50 nM AED; FIG. 4
Text: as §1

| Compound | androgenic activity (AR-mediated CAT gene transactivation) (androgen receptor (AR) [1]) | effect on AED-mediated AR transcriptional activity (androgen receptor (AR) [2]) | PR activity [3] | suppression of AED-mediated AR transcription activity by HF (androgen receptor (AR) [4]) |
| --- | --- | --- | --- | --- |
| 17-methyl-marrianolic acid [Compound 18] | little androgenic activity | either activation of AED-mediated AR transcriptional activity or they have no effect |  |  |
| 3β,17β-diacetoxy-androst-5-ene-7α,17β-diol [Compound 13] | little androgenic activity | either activation of AED-mediated AR transcriptional activity or they have no effect |  |  |
| C[C@]12CC[C@H]3[C@@H](C(=O)C=C4C[C@@H](O)CC[C@@]43C)[C@@H]1CC[C@@H]2O [Compound 22, 7-oxo-androstene-3β,17β-diol] | little androgenic activity | either activation of AED-mediated AR transcriptional activity or they have no effect |  |  |
| C#C[C@]1(O)CCC2C3CCc4cc(O)ccc4C3CC[C@@]21C (stereo partly drawn) [Compound 4, 1, 3, 5(10)-estratriene-17α-ethynyl-3β,17β-diol] |  |  | some weak PR activity |  |
| 3β-methoxy-androst-5-ene-?,17β-diol [Compound 16] | little androgenic activity |  |  |  |
| C[C@]12CC[C@H]3[C@@H](CC=C4C[C@@H](O)CC[C@@]43C)[C@@H]1CC(=O)[C@@H]2O [Compound 8, 3β,17β-dihydroxy-androst-5-en-16-one] | little androgenic activity | antagonized AED-mediated AR transcriptional activity |  |  |
| CO[C@H]1CC[C@@]2(C)C(=CC(=O)[C@H]3[C@@H]4CC[C@H](O)[C@@]4(C)CC[C@@H]32)C1 [Compound 15, 3β-methoxy-17β-hydroxy-androst-5-ene-7-one] | little androgenic activity | either activation of AED-mediated AR transcriptional activity or they have no effect |  |  |
| C[C@]12C[C@H](O)[C@H]3[C@@H](CC=C4C[C@@H](O)CC[C@@]43C)[C@@H]1CC[C@@H]2O [Compound 5, androst-5-ene-3β,11β,17β-triol] | little androgenic activity | either activation of AED-mediated AR transcriptional activity or they have no effect |  |  |
| C#C[C@]1(O)CCC2C3CC=C4C[C@@H](O)CC[C@]4(C)C3CC[C@@]21C (stereo partly drawn) [Compound 6, 17α-ethynyl-androst-5-ene-3β,17β-diol] | little androgenic activity | antagonized AED-mediated AR transcriptional activity |  |  |
| COC(=O)O[C@H]1CC[C@@]2(C)C(=CC(=O)[C@@H]3[C@@H]2CC[C@]2(C)C(=O)CC[C@@H]32)C1 [Compound 10, 3β,-methylcarbonate-androst-5-en-7,17-dione] | little androgenic activity | antagonized AED-mediated AR transcriptional activity |  |  |
| CC(C)(O)C(=O)Nc1ccc([N+](=O)[O-])c(C(F)(F)F)c1 [HF, hydroxyflutamide] |  |  |  | about 40% |
